Results from patent US11360080B2, “AhR-ROR-γt complex as a biomarker and therapeutic target for autoimmune disease and IL-17A-associated disease” (NATIONAL HEALTH RESEARCH INSTITUTES, priority 2018, dated 2022).
Structures can show the parent of a compound that is named as a salt.

Assays:
Format in all cases: cell-based
[1] = test system: human peripheral blood T cells; test: ELISA of IL-17A in supernatants of human T cells stimulated with anti-CD3/CD28; details: 1 μM or 5 μM for 3 days
Description: Means±SD are shown, (b) ELISA of IL-17A in supernatants of human T cells. T cells were stimulated with anti-CD3/CD28 and treated with C1 (verteporfin) (1 μM or 5 μM) or C2 (1 μM or 5 μM) for 3 days. HC, healthy control; SLE, systemic lupus erythematosus; RA, rheumatoid arthritis; AS, ankylosing spondylitis; PsA, psoriatic arthritis; PSS, primary Sjögren's syndrome. Means±SD are shown. C1 denotes verteporfin; C2 denotes alexidine dihydrochloride.
We further studied whether IL-17A production is abolished by the inhibitors of GLK-induced AhR-RORγt complex in human and murine T cells. We first tested the inhibitor experiment using murine T cells stimulated with TCR signaling (anti-CD3 plus anti-CD28 antibodies). […] Next, we studied the blocking effect of IL-17 production by the treatment of C1 (verteporfin) or C2 (alexidine dihydrochloride) using human peripheral blood T cells. […] Taken together, GLK inhibitors (verteporfin and alexidine dihydrochloride) inhibit GLK-induced AhR-RORγt complex and IL-17A production in human autoimmune patient T cells, as well as the disease severity of autoimmune animal models. Thus, GLK, GLK signaling, or GLK-induced AhR-RORγt complex can be a promising therapeutic target for autoimmune diseases.

[2] = test system: human pancreatic cancer Panc-1 cells; test: Transwell migration assay; details: C1 2 uM or 5 uM; C2 2 uM or uM
Description: (§1) Transwell migration assays of human glioma U87 cells, human pancreatic cancer Panc-1 cells, mouse lung cancer LL2 cells, or human hepatoma Huh-7 cells treated with the GLK inhibitor C1 (verteporfin) (a; 2 uM or 5 uM) or C2 (alexidine dihydrochloride) (b; 2 uM or uM). C1 denotes verteporfin; C2 denotes alexidine dihydrochloride.
(§2) For primary cell migration assays, 2×10^5 cells in […] of IMDM with 10% FBS were seeded into the upper chamber of transwells (8 μm pore size, Corning), and the lower chamber was loaded with […] of IMDM with 20% FBS. For cancer cell migration assays, 5×10^4 cells in 200 μl of RPMI 1640 with 10% FBS were seeded into the upper chamber of transwells (8 μm pore size, Corning), and the lower chamber was loaded with […] of RPMI 1640 with 10% FBS. After incubation at 37° C. for 24 h, cells migrating to the lower chamber were imaged and counted by bright-field microscopy following fixation with absolute methanol and staining with 1% crystal violet solution.

[3] = test system: mouse lung cancer LL2 cells; test: Transwell migration assay; details: C1 2 uM or 5 uM; C2 2 uM or uM
Description: as §1, §2

[4] = test system: human hepatoma Huh-7 cells; test: Transwell migration assay; details: C1 2 uM or 5 uM; C2 2 uM or uM
Description: as §1, §2

human glioma U87 cells = test: Transwell migration assay; details: C1 2 uM or 5 uM; C2 2 uM or uM
Description: as §1, §2

GLK−IQGAP1 interaction = target: T1, GLK−IQGAP1 interaction (Homo sapiens, UniProt Q8IVH8); test: FRET assay of HEK293T cells with CFP- and YFP-fused GLK and IQGAP1
T1 construct: expressed in transfected cells; host or cells: HEK293T
Description: (A) Silver-stained gel of anti-Flag immunoprecipitates from HEK293T cells transfected with empty vector or Flag-tagged GLK in the presence or absence of the tyrosine phosphatase inhibitor pervanadate (25 μM). Arrows indicate the positions of GLK or GLK-interacting proteins. (B) Four pervanadate-induced tyrosine phosphorylation residues of GLK proteins were listed. (C and D) Co-immunoprecipitation of anti-Flag (C) or anti-Myc (D) immunocomplexes from lysates of HEK293T cells transfected with Flag-tagged GLK, Myc-tagged IQGAP1, or both plasmids. The whole-cell lysate immunoblots before immunoprecipitation (Pre-IP) are shown at the bottom of each panel. β-Tubulin was used as the loading control. (E) Co-immunoprecipitation of anti-Flag immunocomplexes from lysates of HEK293T cells transfected with either Flag-tagged GLK or Flag-tagged GLK mutant (Y366F, Y379F, Y574F, or Y735F). […]
FRET signal in live cells was detected by EnVision 2104 Multilabel Plate Reader (Perkin Elmer). The reaction was excited by light passing through a 430-nm filter (with 8 nm bandwidth), and the intensity of emitted fluorescence passing through a 530-nm filter (with 8 nm bandwidth) was recorded. If the protein-protein pair is in close proximity (1-10 nm), a 530-nm signal will be detected. […]

T1 sequence (Q8IVH8 whole entry, the tested form may be a part): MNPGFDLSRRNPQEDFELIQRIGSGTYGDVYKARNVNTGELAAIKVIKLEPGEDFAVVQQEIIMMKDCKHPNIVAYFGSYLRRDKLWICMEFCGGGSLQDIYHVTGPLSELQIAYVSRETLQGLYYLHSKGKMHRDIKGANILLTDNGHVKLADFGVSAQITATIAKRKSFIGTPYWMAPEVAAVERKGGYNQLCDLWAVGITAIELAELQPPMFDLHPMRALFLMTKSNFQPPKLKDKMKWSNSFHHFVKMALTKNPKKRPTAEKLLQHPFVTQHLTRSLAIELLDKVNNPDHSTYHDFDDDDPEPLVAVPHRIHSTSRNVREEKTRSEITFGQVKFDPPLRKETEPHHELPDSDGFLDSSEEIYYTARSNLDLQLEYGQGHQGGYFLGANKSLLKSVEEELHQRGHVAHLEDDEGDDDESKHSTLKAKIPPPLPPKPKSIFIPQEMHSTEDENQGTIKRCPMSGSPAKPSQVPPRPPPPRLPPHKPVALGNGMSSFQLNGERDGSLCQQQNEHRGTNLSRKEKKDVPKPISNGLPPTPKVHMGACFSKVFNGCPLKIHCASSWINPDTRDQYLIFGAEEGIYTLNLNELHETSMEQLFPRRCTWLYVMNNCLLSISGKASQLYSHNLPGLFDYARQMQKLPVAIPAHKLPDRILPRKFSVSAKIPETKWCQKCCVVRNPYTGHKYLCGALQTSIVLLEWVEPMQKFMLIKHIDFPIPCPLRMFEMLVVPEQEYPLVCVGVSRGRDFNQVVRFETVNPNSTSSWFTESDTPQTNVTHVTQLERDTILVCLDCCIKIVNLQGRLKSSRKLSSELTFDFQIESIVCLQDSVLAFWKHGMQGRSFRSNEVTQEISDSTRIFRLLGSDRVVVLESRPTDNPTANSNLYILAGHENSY

SMILES | IL-17A production, anti-CD3/CD28-stimulated T cells of autoimmune disease patients [1] | TCR-induced IL-17A production, T cells from healthy controls [1] | migration of pancreatic cancer cells [2] | migration of lung cancer cells [3] | migration of hepatoma cells [4] | migration of glioma cells (human glioma U87 cells) | FRET signals of GLK−IQGAP1 interaction (GLK−IQGAP1 interaction)
C=Cc1c(C)c2cc3nc(cc4[nH]c(cc5nc(cc1[nH]2)C(C)=C5CCC(=O)O)c(CCC(=O)OC)c4C)[C@@]1(C)C3=CC=C(C(=O)OC)[C@H]1C(=O)OC [C1, verteporfin] | drastically inhibited | significantly reduced | inhibited | inhibited | inhibited | inhibited | inhibited
CCCCC(CC)CNC(=N)NC(=N)NCCCCCCNC(=N)NC(=N)NCC(CC)CCCC (stereo not shown) [C2, alexidine dihydrochloride] | drastically inhibited |  | inhibited | inhibited | inhibited | inhibited | inhibited
